# Measurements from patent publication US20260256792A1, “TREATMENT OF CHRONIC SPONTANEOUS URTICARIA BY ADMINISTERING (R)-2-[3-[4-AMINO-3-(2-FLUORO-4-PHENOXY-PHENYL)PYRAZOLO[3,4-D]PYRIMIDIN-1-YL]PIPERIDINE-1-CARBONYL]-4-METHYL-4-[4-(OXETAN-3-YL)PIPERAZIN-1-YL]PENT-2-ENENITRILE” (priority 2023, published 2026).
# Test system: moderate-to-severe chronic spontaneous urticaria (CSU)
# Test: Phase 2 CSU study: Patient Global Impression of Severity (PGIS)
# Format: in vivo, human
# Details: for PGIS Change from baseline Mean (SD) / PGIS Change from baseline Median / PGIS Median / PGIS Percent change from baseline Mean (SD) / PGIS Percent change from baseline Median / PGIS category Mild, patients / PGIS category Moderate, patients / PGIS category None, patients / PGIS category Severe, patients: omalizumab-naïve population; for PGIS % Change difference for rilzabrutinib vs. placebo LS Mean (95% CI) / PGIS % Change from baseline LS Mean (SE) / PGIS Change difference for rilzabrutinib vs. placebo LS Mean (95% CI) / PGIS Change from baseline LS Mean (SE): omalizumab-naïve, ANCOVA
# Excerpt: The study comprises a 12 week, randomized, double-blind, placebo-controlled, multi-center, dose-ranging efficacy and safety phase, followed by a 40 week open label extension (OLE) phase (see FIG. 1).
# The study consists of three phases and an optional OLE phase.
# The PGIS is a 1-item measure that asks participants to provide a self-assessment of their overall CSU severity for the past week on a 4 point scale. Response choices are: “None”, “Mild”, “Moderate” and “Severe”. The PGIC is a 1-item measure that asks the participant to provide a self-assessment of overall change in their CSU since the participant started taking the study medication on a 7-point scale. The response options range from “Very Much Better” to “Very Much Worse.” Patients were to complete questionnaires for the 2 items during their site visit.
structure (smiles),measurement,setting,value
"CC(C)(C=C(C#N)C(=O)N1CCC[C@@H](n2nc(-c3ccc(Oc4ccccc4)cc3F)c3c(N)ncnc32)C1)N1CCN(C2COC2)CC1 [rilzabrutinib, (R)-2-[3-[4-amino-3-(2-fluoro-4-phenoxy-phenyl)pyrazolo[3,4-d]pyrimidin-1-yl]piperidine-1-carbonyl]-4-methyl-4-[4-(oxetan-3-yl)piperazin-1-yl]pent-2-enenitrile]",quality of life as measured by PGIS,400 mg TID,improvement
same,PGIS Change from baseline Mean (SD),"Week 2, 400 mg BID",−0.65
same,PGIS Change from baseline Median,"Week 2, 400 mg BID",0.00
same,PGIS Median,"Week 2, 400 mg BID",2.00
same,PGIS Percent change from baseline Mean (SD),"Week 2, 400 mg BID",−23.12%
same,PGIS Percent change from baseline Median,"Week 2, 400 mg BID",0.00%
same,"PGIS category Mild, patients","Week 2, 400 mg BID",8 (25.8)
same,"PGIS category Moderate, patients","Week 2, 400 mg BID",14 (45.2)
same,"PGIS category None, patients","Week 2, 400 mg BID",5 (16.1)
same,"PGIS category Severe, patients","Week 2, 400 mg BID",4 (12.9)
same,PGIS % Change difference for rilzabrutinib vs. placebo LS Mean (95% CI),"Week 2, 400 mg BID","−7.56 (−24.17, 9.05) %"
same,PGIS % Change from baseline LS Mean (SE),"Week 2, 400 mg BID",−26.23 (6.28) %
same,PGIS Change difference for rilzabrutinib vs. placebo LS Mean (95% CI),"Week 2, 400 mg BID","−0.26 (−0.63, 0.11)"
same,PGIS Change from baseline LS Mean (SE),"Week 2, 400 mg BID",−0.76 (0.14)
same,PGIS Change from baseline Mean (SD),"Week 2, 400 mg QPM",−0.48
same,PGIS Change from baseline Median,"Week 2, 400 mg QPM",0.00
same,PGIS Median,"Week 2, 400 mg QPM",2.00
same,PGIS Percent change from baseline Mean (SD),"Week 2, 400 mg QPM",−17.68%
same,PGIS Percent change from baseline Median,"Week 2, 400 mg QPM",0.00%
same,"PGIS category Mild, patients","Week 2, 400 mg QPM",8 (24.2)
same,"PGIS category Moderate, patients","Week 2, 400 mg QPM",17 (51.5)
same,"PGIS category None, patients","Week 2, 400 mg QPM",0
same,"PGIS category Severe, patients","Week 2, 400 mg QPM",8 (24.2)
same,PGIS % Change difference for rilzabrutinib vs. placebo LS Mean (95% CI),"Week 2, 400 mg QPM","0.86 (−15.86, 17.59) %"
same,PGIS % Change from baseline LS Mean (SE),"Week 2, 400 mg QPM",−17.80 (6.05) %
same,PGIS Change difference for rilzabrutinib vs. placebo LS Mean (95% CI),"Week 2, 400 mg QPM","0.03 (−0.34, 0.41)"
same,PGIS Change from baseline LS Mean (SE),"Week 2, 400 mg QPM",−0.47 (0.14)
same,PGIS Change from baseline Mean (SD),"Week 2, 400 mg TID",−0.94
same,PGIS Change from baseline Median,"Week 2, 400 mg TID",1.00
same,PGIS Median,"Week 2, 400 mg TID",1.00
same,PGIS Percent change from baseline Mean (SD),"Week 2, 400 mg TID",−41.92%
same,PGIS Percent change from baseline Median,"Week 2, 400 mg TID",−50.00%
same,"PGIS category Mild, patients","Week 2, 400 mg TID",17 (50.0)
same,"PGIS category Moderate, patients","Week 2, 400 mg TID",9 (26.5)
same,"PGIS category None, patients","Week 2, 400 mg TID",4 (11.8)
same,"PGIS category Severe, patients","Week 2, 400 mg TID",4 (11.8)
same,PGIS % Change difference for rilzabrutinib vs. placebo LS Mean (95% CI),"Week 2, 400 mg TID","−22.00 (−38.77, −5.22) %"
same,PGIS % Change from baseline LS Mean (SE),"Week 2, 400 mg TID",−40.66 (6.06) %
same,PGIS Change difference for rilzabrutinib vs. placebo LS Mean (95% CI),"Week 2, 400 mg TID","−0.46 (−0.83, −0.09)"
same,PGIS Change from baseline LS Mean (SE),"Week 2, 400 mg TID",−0.96 (0.13)
same,PGIS Change from baseline Mean (SD),"Week 4, 400 mg BID",−0.70
same,PGIS Change from baseline Median,"Week 4, 400 mg BID",0.00
same,PGIS Median,"Week 4, 400 mg BID",2.00
same,PGIS Percent change from baseline Mean (SD),"Week 4, 400 mg BID",−27.78%
same,PGIS Percent change from baseline Median,"Week 4, 400 mg BID",0.00%
same,"PGIS category Mild, patients","Week 4, 400 mg BID",10 (30.3)
same,"PGIS category Moderate, patients","Week 4, 400 mg BID",15 (45.5)
same,"PGIS category None, patients","Week 4, 400 mg BID",5 (15.2)
same,"PGIS category Severe, patients","Week 4, 400 mg BID",3 (9.1)
same,PGIS % Change difference for rilzabrutinib vs. placebo LS Mean (95% CI),"Week 4, 400 mg BID","−1.31 (−17.26, 14.65) %"
same,PGIS % Change from baseline LS Mean (SE),"Week 4, 400 mg BID",−29.83 (5.99) %
same,PGIS Change difference for rilzabrutinib vs. placebo LS Mean (95% CI),"Week 4, 400 mg BID","−0.12 (−0.48, 0.25)"
same,PGIS Change from baseline LS Mean (SE),"Week 4, 400 mg BID",−0.81 (0.13)
same,PGIS Change from baseline Mean (SD),"Week 4, 400 mg QPM",−0.65
same,PGIS Change from baseline Median,"Week 4, 400 mg QPM",−0.50
same,PGIS Median,"Week 4, 400 mg QPM",2.00
same,PGIS Percent change from baseline Mean (SD),"Week 4, 400 mg QPM",−25.49%
same,PGIS Percent change from baseline Median,"Week 4, 400 mg QPM",−16.67%
same,"PGIS category Mild, patients","Week 4, 400 mg QPM",10 (29.4)
same,"PGIS category Moderate, patients","Week 4, 400 mg QPM",15 (44.1)
same,"PGIS category None, patients","Week 4, 400 mg QPM",1 (2.9)
same,"PGIS category Severe, patients","Week 4, 400 mg QPM",8 (23.5)
same,PGIS % Change difference for rilzabrutinib vs. placebo LS Mean (95% CI),"Week 4, 400 mg QPM","3.06 (−12.83, 18.95) %"
same,PGIS % Change from baseline LS Mean (SE),"Week 4, 400 mg QPM",−25.46 (5.77) %
same,PGIS Change difference for rilzabrutinib vs. placebo LS Mean (95% CI),"Week 4, 400 mg QPM","0.09 (−0.27, 0.44)"
same,PGIS Change from baseline LS Mean (SE),"Week 4, 400 mg QPM",−0.61 (0.13)
same,PGIS Change from baseline Mean (SD),"Week 4, 400 mg TID",−1.07
same,PGIS Change from baseline Median,"Week 4, 400 mg TID",1.00
same,PGIS Median,"Week 4, 400 mg TID",1.00
same,PGIS Percent change from baseline Mean (SD),"Week 4, 400 mg TID",−43.10%
same,PGIS Percent change from baseline Median,"Week 4, 400 mg TID",−50.00%
same,"PGIS category Mild, patients","Week 4, 400 mg TID",15 (51.7)
same,"PGIS category Moderate, patients","Week 4, 400 mg TID",9 (31.0)
same,"PGIS category None, patients","Week 4, 400 mg TID",3 (10.3)
same,"PGIS category Severe, patients","Week 4, 400 mg TID",2 (6.9)
same,PGIS % Change from baseline LS Mean (SE),"Week 4, 400 mg TID",−41.04 (6.24) %
same,PGIS Change difference for rilzabrutinib vs. placebo LS Mean (95% CI),"Week 4, 400 mg TID","−0.27 (−0.62, 0.09)"
